Measurements taken from patent US11390618B2, “Inhibitors of cyclin-dependent kinases” (Kinnate Biopharma Inc., priority 2018, dated 2022).

Target: CDK12 wt/CycK (Homo sapiens (Human), UniProt Q9NYV4)
Assay: Radiometric protein kinase assay (33PanQinase Activity Assay), Assay Condition A (thiol containing conditions)
Assay type: biochemical
Conditions: thiol containing conditions (1.2 mM DTT), ATP at apparent Km
Description: Objective: The IC50 profile of test compounds was determined using three protein kinases.
Test compounds: The compounds were provided as pre-weighed powders in vials. The compounds were dissolved to 1×10^−02M by adding DMSO. 100 μl of each of the resulting stock solutions were transferred into column 2 of four 96 well “master plates”.
Prior to testing, the 1×10^−02M stock solutions in column 2 of the master plates were subjected to a serial, semi-logarithmic dilution using 100% DMSO as a solvent. […] Column 1 and 7 were filled with 100% DMSO as controls. […]
The reaction cocktails were incubated at 30° C. for 60 minutes. […] Incorporation of ^33Pi was determined with a microplate scintillation counter (Microbeta, Wallac). […]
Evaluation of raw data: The median value of the counts in column 1 (n=8) of each assay plate was defined as “low control”. This value reflects unspecific binding of radioactivity to the plate in the absence of a protein kinase but in the presence of the substrate. […]
As part of the data evaluation the low control value from a particular plate was subtracted from the high control value as well as from all 80 “compound values” of the corresponding plate. The residual activity (in %) for each well of a particular plate was calculated by using the following formula: Res. Activity (%)=100×[(cpm of compound−low control)/(high control−low control)] […]

CDK12 wt/CycK, sequence (Q9NYV4 whole entry): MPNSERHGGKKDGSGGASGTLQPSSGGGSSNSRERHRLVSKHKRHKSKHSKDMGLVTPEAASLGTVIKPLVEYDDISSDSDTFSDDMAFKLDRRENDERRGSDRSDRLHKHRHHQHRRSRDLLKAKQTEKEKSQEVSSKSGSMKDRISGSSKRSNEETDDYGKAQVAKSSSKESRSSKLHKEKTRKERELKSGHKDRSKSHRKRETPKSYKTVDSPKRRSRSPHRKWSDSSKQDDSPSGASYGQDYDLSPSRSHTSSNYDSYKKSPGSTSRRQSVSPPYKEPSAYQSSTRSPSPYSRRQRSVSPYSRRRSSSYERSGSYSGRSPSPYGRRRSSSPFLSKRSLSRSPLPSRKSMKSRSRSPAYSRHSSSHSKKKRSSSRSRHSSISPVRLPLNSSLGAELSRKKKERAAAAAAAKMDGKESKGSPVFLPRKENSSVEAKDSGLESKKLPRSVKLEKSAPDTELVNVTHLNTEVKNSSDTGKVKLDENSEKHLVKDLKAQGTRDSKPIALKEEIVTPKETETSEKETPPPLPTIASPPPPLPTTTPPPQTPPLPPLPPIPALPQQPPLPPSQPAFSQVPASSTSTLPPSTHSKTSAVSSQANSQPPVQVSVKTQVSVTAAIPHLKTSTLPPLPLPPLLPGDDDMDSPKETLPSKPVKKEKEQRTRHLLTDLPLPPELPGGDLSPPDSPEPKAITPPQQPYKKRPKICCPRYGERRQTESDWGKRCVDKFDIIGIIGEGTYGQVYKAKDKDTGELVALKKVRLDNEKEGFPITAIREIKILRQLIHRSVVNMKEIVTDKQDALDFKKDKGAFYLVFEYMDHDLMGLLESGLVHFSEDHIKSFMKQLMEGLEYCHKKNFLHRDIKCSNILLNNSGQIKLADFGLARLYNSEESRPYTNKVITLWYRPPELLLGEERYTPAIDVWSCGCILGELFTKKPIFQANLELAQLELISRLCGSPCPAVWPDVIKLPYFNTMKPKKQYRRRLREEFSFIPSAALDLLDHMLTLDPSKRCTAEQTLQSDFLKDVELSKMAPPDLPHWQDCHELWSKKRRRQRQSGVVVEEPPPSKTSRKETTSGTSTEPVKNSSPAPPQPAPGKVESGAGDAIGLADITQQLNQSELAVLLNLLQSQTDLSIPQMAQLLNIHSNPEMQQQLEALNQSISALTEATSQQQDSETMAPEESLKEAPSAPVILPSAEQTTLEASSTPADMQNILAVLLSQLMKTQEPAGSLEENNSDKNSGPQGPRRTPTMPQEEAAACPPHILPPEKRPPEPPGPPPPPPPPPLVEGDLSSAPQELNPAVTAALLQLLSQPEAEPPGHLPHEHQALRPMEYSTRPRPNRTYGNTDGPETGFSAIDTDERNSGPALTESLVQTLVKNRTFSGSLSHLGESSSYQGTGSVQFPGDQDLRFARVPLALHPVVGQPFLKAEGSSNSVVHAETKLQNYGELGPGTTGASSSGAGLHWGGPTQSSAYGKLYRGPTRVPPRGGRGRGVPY
CDK12 wt/CycK, sequence (O75909 whole entry partner): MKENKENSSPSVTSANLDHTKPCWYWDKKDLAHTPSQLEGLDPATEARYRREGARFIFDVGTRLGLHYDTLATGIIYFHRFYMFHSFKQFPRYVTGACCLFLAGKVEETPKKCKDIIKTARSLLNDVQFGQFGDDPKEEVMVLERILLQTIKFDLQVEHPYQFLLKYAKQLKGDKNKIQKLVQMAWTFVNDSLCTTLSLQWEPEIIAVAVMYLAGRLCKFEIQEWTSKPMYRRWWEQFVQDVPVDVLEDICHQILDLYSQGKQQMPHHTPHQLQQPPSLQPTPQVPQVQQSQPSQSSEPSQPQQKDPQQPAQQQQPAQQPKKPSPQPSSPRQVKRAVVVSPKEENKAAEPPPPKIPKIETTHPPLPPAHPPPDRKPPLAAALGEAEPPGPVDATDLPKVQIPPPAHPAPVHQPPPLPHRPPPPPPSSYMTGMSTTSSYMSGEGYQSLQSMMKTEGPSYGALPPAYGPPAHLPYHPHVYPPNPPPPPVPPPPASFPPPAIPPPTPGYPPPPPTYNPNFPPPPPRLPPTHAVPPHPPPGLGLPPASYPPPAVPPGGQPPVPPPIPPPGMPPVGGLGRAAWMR

| Molecule | IC50 |
| --- | --- |
| COc1nc(N[C@@H]2CCN(C(=O)c3ccc(NC(=O)/C=C/CN4CC[C@@H](F)C4)cn3)C2)ncc1Cl [Example 170, (E)-N-(6-((R)-3-((5-chloro-4-methoxypyrimidin-2-yl)amino)pyrrolidine-1-carbonyl)pyridin-3-yl)-4-((R)-3-fluoropyrrolidin-1-yl)but-2-enamide] | 100 to 1000 nM |
| (R)—N-(3-(3-((5-chloropyrimidin-2-yl)amino)pyrrolidine-1-carbonyl)phenyl)-2-cyano-3-(dimethylamino)acrylamide [Example 135] | 1000 to 10000 nM |
